# Reference: ChEMBL document CHEMBL1201861, “Genomics of Drug Sensitity in Cancer screening data, Wellcome Trust Sanger Institute”
# Assays:
# Assay in all cases: cells
# Type in all cases: functional, cell-based, Homo sapiens
# ES6 = system: ES6;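 also: growth inhibition of human ES6 cells, read out with a cell viability assay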
# Description: SANGER: Inhibition of human ES6 cell growth in a cell viability assay.
# C-33-A = system: C-33-A;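 also: cell viability assay measuring growth inhibition of C-33-A cells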
# Description: SANGER: Inhibition of human C-33-A cell growth in a cell viability assay.
# Calu-3 = system: Calu-3;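 also: growth inhibition of human Calu-3 cells, determined with a cell viability assay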
# Description: SANGER: Inhibition of human Calu-3 cell growth in a cell viability assay.
# CFPAC-1 = system: CFPAC-1;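 also: cell viability readout used to gauge suppression of CFPAC-1 cell proliferation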
# Description: SANGER: Inhibition of human CFPAC-1 cell growth in a cell viability assay.
# Daoy = system: Daoy;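 also: daoy cell growth inhibition, read out as cell viability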
# Description: SANGER: Inhibition of human Daoy cell growth in a cell viability assay.
# SW1573 = system: SW1573;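 also: growth inhibition of SW1573 cells, read out with a cell viability assay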
# Description: SANGER: Inhibition of human SW1573 cell growth in a cell viability assay.
# RCC10RGB = system: RCC10RGB;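 also: growth inhibition of human RCC10RGB cells, read out by a cell viability assay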
# Description: SANGER: Inhibition of human RCC10RGB cell growth in a cell viability assay.
# NCI-H1563 = system: NCI-H1563;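 also: growth inhibition of human NCI-H1563 cells, read out with a cell viability assay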
# Description: SANGER: Inhibition of human NCI-H1563 cell growth in a cell viability assay.
# LS-411N = system: LS-411N
# AN3-CA = system: AN3-CA;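 also: growth inhibition of human AN3-CA cells measured by a cell viability assay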
# Description: SANGER: Inhibition of human AN3-CA cell growth in a cell viability assay.
# JAR = system: JAR;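 also: growth inhibition of human JAR cells determined with a cell viability assay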
# Description: SANGER: Inhibition of human JAR cell growth in a cell viability assay.
# SK-PN-DW = system: SK-PN-DW;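 also: growth inhibition measured with a viability assay on these cells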
# Description: SANGER: Inhibition of human SK-PN-DW cell growth in a cell viability assay.
# OE33 = system: OE33;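 also: growth inhibition of human OE33 cells, measured by a cell viability assay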
# Description: SANGER: Inhibition of human OE33 cell growth in a cell viability assay.
# HD-MY-Z = system: HD-MY-Z;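 also: growth inhibition of HD-MY-Z cells, read out with a cell viability assay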
# Description: SANGER: Inhibition of human HD-MY-Z cell growth in a cell viability assay.
# KGN = system: KGN;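 also: growth inhibition of KGN cells, read out with a cell viability assay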
# Description: SANGER: Inhibition of human KGN cell growth in a cell viability assay.
# UO-31 = system: UO-31;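 also: cell viability assay measuring inhibition of cell growth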
# Description: SANGER: Inhibition of human U031 cell growth in a cell viability assay.
# Hs-578T = system: Hs-578T
# Description: SANGER: Inhibition of human Hs-578-T cell growth in a cell viability assay.
# COLO-684 = system: COLO-684
# Description: SANGER: Inhibition of human COLO-684 cell growth in a cell viability assay.
# Ca-Ski = system: Ca-Ski;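 also: cell viability assay measuring inhibition of Ca-Ski cell growth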
# Description: SANGER: Inhibition of human Ca-Ski cell growth in a cell viability assay.
# FTC-133 = system: FTC-133
# TE-8 = system: TE-8;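 also: growth inhibition of TE-8 cells, measured with a cell viability readout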
# Description: SANGER: Inhibition of human TE-8 cell growth in a cell viability assay.
# PANC-08-13 = system: PANC-08-13;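 also: cell growth inhibition, measured with a cell viability assay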
# Description: SANGER: Inhibition of human PANC-08-13 cell growth in a cell viability assay.
# S-117 = system: S-117
# Description: SANGER: Inhibition of human S-117 cell growth in a cell viability assay.
# NCI-H446 = system: NCI-H446;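 also: growth inhibition of NCI-H446 cells determined by a cell viability assay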
# Description: SANGER: Inhibition of human NCI-H446 cell growth in a cell viability assay.
# BEN = details: Homo sapiens, BEN;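 also: growth inhibition of the BEN cell line, read out with a cell viability assay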
# Description: SANGER: Inhibition of human BEN cell growth in a cell viability assay.
# D-542MG = system: D-542MG
# Description: SANGER: Inhibition of human D-542MG cell growth in a cell viability assay.
# HAL-01 = system: HAL-01;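 also: growth inhibition of human HAL-01 cells, read out with a cell viability assay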
# Description: SANGER: Inhibition of human HAL-01 cell growth in a cell viability assay.
# KYSE-140 = system: KYSE-140;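 also: cell viability assay measuring growth inhibition in human KYSE-140 cells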
# Description: SANGER: Inhibition of human KYSE-140 cell growth in a cell viability assay.
# GCIY = system: GCIY;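 also: growth inhibition of the human GCIY cell line, read out by a cell viability assay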
# Description: SANGER: Inhibition of human GCIY cell growth in a cell viability assay.
# 769-P = system: 769-P
# Description: SANGER: Inhibition of human 769-P cell growth in a cell viability assay.
# TYK-nu = system: TYK-nu;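 also: growth inhibition of human TYK-nu cells, read out by a cell viability assay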
# Description: SANGER: Inhibition of human TYK-nu cell growth in a cell viability assay.
# EW-16 = system: EW-16;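 also: growth inhibition of human EW-16 cells, read out as cell viability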
# Description: SANGER: Inhibition of human EW-16 cell growth in a cell viability assay.
# SCC-9 = system: SCC-9;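 also: Read-out is a cell viability assay, with values giving inhibition of cell growth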
# Description: SANGER: Inhibition of human SCC-9 cell growth in a cell viability assay.
# NCI-H2122 = system: NCI-H2122;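 also: growth inhibition of the cells, read out with a cell viability assay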
# Description: SANGER: Inhibition of human NCI-H2122 cell growth in a cell viability assay.
# C2BBe1 = system: C2BBe1;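 also: growth inhibition of C2BBe1 cells, read out through a viability assay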
# Description: SANGER: Inhibition of human C2BBe1 cell growth in a cell viability assay.
# EFM-19 = system: EFM-19;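 also: growth inhibition of human EFM-19 cells, measured in a cell viability assay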
# Description: SANGER: Inhibition of human EFM-19 cell growth in a cell viability assay.
# MDA-MB-231 = system: MDA-MB-231
# Description: SANGER: Inhibition of human MDA-MB-231 cell growth in a cell viability assay.
# no-10 = system: no-10;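 also: growth inhibition of no-10 cells, read out with a cell viability assay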
# Description: SANGER: Inhibition of human no-10 cell growth in a cell viability assay.
# DU-4475 = system: DU-4475
# Description: SANGER: Inhibition of human DU-4475 cell growth in a cell viability assay.
# C32 = system: C32;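 also: cell viability assay, with IC50 reflecting inhibition of C32 cell growth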
# Description: SANGER: Inhibition of human C32 cell growth in a cell viability assay.
# NCI-H510A = system: NCI-H510A;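 also: growth inhibition of NCI-H510A cells, read out with a cell viability assay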
# Description: SANGER: Inhibition of human NCI-H510A cell growth in a cell viability assay.
compound,measurement,setting,value
Cc1cn(-c2cc(NC(=O)c3ccc(C)c(Nc4nccc(-c5cccnc5)n4)c3)cc(C(F)(F)F)c2)cn1 [NILOTINIB],IC50,"ES6; Homo sapiens, ES6",> 2 µM
same,IC50,"C-33-A; Homo sapiens, C-33-A",> 2 µM
same,IC50,"Calu-3; Homo sapiens, Calu-3",> 2 µM
same,IC50,"CFPAC-1; Homo sapiens, CFPAC-1",> 2 µM
same,IC50,"Daoy; Homo sapiens, Daoy",> 2 µM
same,IC50,"SW1573; Homo sapiens, SW1573",> 2 µM
same,IC50,"RCC10RGB; Homo sapiens, RCC10RGB",> 2 µM
same,IC50,"NCI-H1563; Homo sapiens, NCI-H1563",> 2 µM
same,IC50,"LS-411N; Homo sapiens, LS-411N",> 2 µM
same,IC50,"AN3-CA; Homo sapiens, AN3-CA",> 2 µM
same,IC50,"JAR; Homo sapiens, JAR",> 2 µM
same,IC50,"SK-PN-DW; Homo sapiens, SK-PN-DW",> 2 µM
same,IC50,"OE33; Homo sapiens, OE33",> 2 µM
same,IC50,"HD-MY-Z; Homo sapiens, HD-MY-Z",> 2 µM
same,IC50,"KGN; Homo sapiens, KGN",> 2 µM
same,IC50,"UO-31; Homo sapiens, UO-31",> 2 µM
same,IC50,"Hs-578T; Homo sapiens, Hs-578T",> 2 µM
same,IC50,"COLO-684; Homo sapiens, COLO-684",> 2 µM
same,IC50,"Ca-Ski; Homo sapiens, Ca-Ski",> 2 µM
same,IC50,"FTC-133; Homo sapiens, FTC-133",> 2 µM
same,IC50,"TE-8; Homo sapiens, TE-8",> 2 µM
same,IC50,"PANC-08-13; Homo sapiens, PANC-08-13",> 2 µM
same,IC50,"S-117; Homo sapiens, S-117",> 2 µM
same,IC50,"NCI-H446; Homo sapiens, NCI-H446",> 2 µM
same,IC50,BEN,> 2 µM
same,IC50,"D-542MG; Homo sapiens, D-542MG",> 2 µM
same,IC50,"HAL-01; Homo sapiens, HAL-01",> 2 µM
same,IC50,"KYSE-140; Homo sapiens, KYSE-140",> 2 µM
same,IC50,"GCIY; Homo sapiens, GCIY",> 2 µM
same,IC50,"769-P; Homo sapiens, 769-P",> 2 µM
same,IC50,"TYK-nu; Homo sapiens, TYK-nu",> 2 µM
same,IC50,"EW-16; Homo sapiens, EW-16",> 2 µM
same,IC50,"SCC-9; Homo sapiens, SCC-9",> 2 µM
same,IC50,"NCI-H2122; Homo sapiens, NCI-H2122",> 2 µM
same,IC50,"C2BBe1; Homo sapiens, C2BBe1",> 2 µM
same,IC50,"EFM-19; Homo sapiens, EFM-19",> 2 µM
same,IC50,"MDA-MB-231; Homo sapiens, MDA-MB-231",> 2 µM
same,IC50,no-10; Homo sapiens,> 2 µM
same,IC50,"DU-4475; Homo sapiens, DU-4475",> 2 µM
same,IC50,"C32; Homo sapiens, C32",> 2 µM
same,IC50,"NCI-H510A; Homo sapiens, NCI-H510A",> 2 µM
CS(=O)(=O)c1ccc(C(=O)Nc2ccc(Cl)c(-c3ccccn3)c2)c(Cl)c1 [VISMODEGIB],IC50,"ES6; Homo sapiens, ES6",> 10 µM
same,IC50,"C-33-A; Homo sapiens, C-33-A",> 10 µM
same,IC50,"Calu-3; Homo sapiens, Calu-3",> 10 µM
same,IC50,"CFPAC-1; Homo sapiens, CFPAC-1",> 10 µM
same,IC50,"Daoy; Homo sapiens, Daoy",> 10 µM
same,IC50,"SW1573; Homo sapiens, SW1573",> 10 µM
same,IC50,"RCC10RGB; Homo sapiens, RCC10RGB",> 10 µM
same,IC50,"NCI-H1563; Homo sapiens, NCI-H1563",> 10 µM
same,IC50,"LS-411N; Homo sapiens, LS-411N",> 10 µM
same,IC50,"AN3-CA; Homo sapiens, AN3-CA",> 10 µM
same,IC50,"JAR; Homo sapiens, JAR",> 10 µM
same,IC50,"SK-PN-DW; Homo sapiens, SK-PN-DW",> 10 µM
same,IC50,"OE33; Homo sapiens, OE33",> 10 µM
same,IC50,"HD-MY-Z; Homo sapiens, HD-MY-Z",> 10 µM
same,IC50,"KGN; Homo sapiens, KGN",> 10 µM
same,IC50,"UO-31; Homo sapiens, UO-31",> 10 µM
same,IC50,"Hs-578T; Homo sapiens, Hs-578T",> 10 µM
same,IC50,"COLO-684; Homo sapiens, COLO-684",> 10 µM
same,IC50,"Ca-Ski; Homo sapiens, Ca-Ski",> 10 µM
same,IC50,"FTC-133; Homo sapiens, FTC-133",> 10 µM
same,IC50,"TE-8; Homo sapiens, TE-8",> 10 µM
same,IC50,"PANC-08-13; Homo sapiens, PANC-08-13",> 10 µM
same,IC50,"S-117; Homo sapiens, S-117",> 10 µM
same,IC50,"NCI-H446; Homo sapiens, NCI-H446",> 10 µM
same,IC50,BEN,> 10 µM
same,IC50,"D-542MG; Homo sapiens, D-542MG",1.87 µM
same,IC50,"HAL-01; Homo sapiens, HAL-01",> 10 µM
same,IC50,"KYSE-140; Homo sapiens, KYSE-140",> 10 µM
same,IC50,"GCIY; Homo sapiens, GCIY",> 10 µM
same,IC50,"769-P; Homo sapiens, 769-P",> 10 µM
same,IC50,"TYK-nu; Homo sapiens, TYK-nu",> 10 µM
same,IC50,"EW-16; Homo sapiens, EW-16",> 10 µM
same,IC50,"SCC-9; Homo sapiens, SCC-9",> 10 µM
same,IC50,"NCI-H2122; Homo sapiens, NCI-H2122",> 10 µM
same,IC50,"C2BBe1; Homo sapiens, C2BBe1",> 10 µM
same,IC50,"EFM-19; Homo sapiens, EFM-19",> 10 µM
same,IC50,"MDA-MB-231; Homo sapiens, MDA-MB-231",> 10 µM
same,IC50,no-10; Homo sapiens,> 10 µM
same,IC50,"C32; Homo sapiens, C32",> 10 µM
same,IC50,"NCI-H510A; Homo sapiens, NCI-H510A",> 10 µM
CISPLATIN,IC50,ES6; es6,21.3 µM
same,IC50,C-33-A; c-33-a,9.11 µM
same,IC50,Calu-3; calu-3,582 µM
same,IC50,CFPAC-1; cfpac-1,35.2 µM
same,IC50,Daoy; daoy,1.51 µM
same,IC50,SW1573; sw1573,43.3 µM
same,IC50,RCC10RGB; rcc10rgb,917 µM
same,IC50,NCI-H1563; nci-h1563,146 µM
same,IC50,LS-411N; ls-411n,66.4 µM
same,IC50,AN3-CA; an3-ca,9.94 µM
same,IC50,JAR; jar,3.35 µM
same,IC50,SK-PN-DW; sk-pn-dw,35 µM
same,IC50,OE33; oe33,22.5 µM
same,IC50,HD-MY-Z; hd-my-z,18 µM
same,IC50,KGN; kgn,17.6 µM
same,IC50,UO-31; uo-31,12.9 µM
same,IC50,Hs-578T; hs-578-t,11.3 µM
same,IC50,COLO-684; colo-684,29.1 µM
same,IC50,Ca-Ski; ca-ski,10.3 µM
same,IC50,FTC-133; ftc-133,4.77 µM
same,IC50,TE-8; te-8,16.5 µM
same,IC50,PANC-08-13; panc-08-13,22.5 µM
same,IC50,S-117; s-117,4.53 µM
same,IC50,NCI-H446; nci-h446,37.4 µM
same,IC50,D-542MG; d-542mg,3.26 µM
same,IC50,HAL-01; hal-01,109 µM
same,IC50,KYSE-140; kyse-140,7.59 µM
same,IC50,GCIY; gciy,18.5 µM
same,IC50,769-P; 769-p,16.2 µM
same,IC50,TYK-nu; tyk-nu,15.8 µM
same,IC50,EW-16; ew-16,24.6 µM
same,IC50,SCC-9; scc-9,23.6 µM
same,IC50,NCI-H2122; nci-h2122,15.3 µM
same,IC50,C2BBe1; c2bbe1,97 µM
same,IC50,EFM-19; efm-19,245 µM
same,IC50,MDA-MB-231; mda-mb-231,264 µM
same,IC50,no-10,77.8 µM
same,IC50,DU-4475; du-4475,111 µM
same,IC50,C32; c32,6.38 µM
same,IC50,NCI-H510A; nci-h510a,3.1 µM
